According to patent US11001561B2, “Pyrimidinone derivatives as SHP2 antagonists” (MERCK PATENT GMBH, priority 2019, dated 2021):
Where two headings read alike, the source gives them in different places.

What was measured:
[1] = test system: pERK1/2 in KYSE520 cells; experiment: p-Erk cellular assay in KYSE520 (Mesoscale); type: cell-based; details: read-out: pERK1/2 in Cell KYSE520 IC50
Description: p-Erk Cellular Assay in KYSE520: The effect of SHP2 inhibitors on pERK level was assessed using phospho-specific antibody using Mesoscale quantification platform. For measuring change in pERK levels using mesoscale, 30,000 cells of KYSE520 cells were plated in 96-well tissue culture treated plate in 175 μl volume of media. After an overnight incubation at 37° C., various SHP2 inhibitors were added in different concentration to each well maintaining duplicate wells across plates and incubated with compounds for 2 h at 37° C. followed by a wash with ice cold PBS buffer. The cells were then lysed in lysis buffer and processed and analyzed for p-ERK/ERK as per manufacturer's instructions (Mesoscale discovery, cat No. […]-3).

[2] = biological target: Full length SHP2 protein (Recombinant Human SHP-2) (Homo sapiens (Human), UniProt Q06124); experiment: SHP2 biochemical assay (DiFMUP substrate, activating peptide IRSI_2pY); details: activating peptide IRSI_2pY 140 nM, DiFMUP, 60 min
Chain of Full length SHP2 protein (Recombinant Human SHP-2) (Q06124 2-593): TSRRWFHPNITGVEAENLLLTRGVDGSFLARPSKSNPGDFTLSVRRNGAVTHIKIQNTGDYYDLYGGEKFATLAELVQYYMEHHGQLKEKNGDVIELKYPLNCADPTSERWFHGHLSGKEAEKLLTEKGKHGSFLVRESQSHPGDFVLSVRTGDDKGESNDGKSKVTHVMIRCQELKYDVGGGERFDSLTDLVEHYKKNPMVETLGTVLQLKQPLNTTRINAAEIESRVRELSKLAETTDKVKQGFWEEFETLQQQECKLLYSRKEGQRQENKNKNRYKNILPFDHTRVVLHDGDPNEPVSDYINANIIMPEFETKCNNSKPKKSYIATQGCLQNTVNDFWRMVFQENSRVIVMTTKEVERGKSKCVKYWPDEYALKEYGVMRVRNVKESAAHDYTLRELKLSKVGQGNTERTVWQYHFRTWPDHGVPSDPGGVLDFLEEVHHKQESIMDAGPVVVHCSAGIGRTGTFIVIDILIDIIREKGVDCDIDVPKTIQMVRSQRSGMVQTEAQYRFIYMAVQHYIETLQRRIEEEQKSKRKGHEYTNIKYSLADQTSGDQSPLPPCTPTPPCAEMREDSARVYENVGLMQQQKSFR
Description: The inhibition of SHP2 by compounds of the invention was monitored using the surrogate substrate DiFMUP after protein activation by a peptide bearing two appropriately spaced phosphotyrosine. […] The generation of the DiFMU product by activated SHP2 was monitored through Fluorescence measurement with a PerkinElmer Envision reader. The inhibitor dose response curves were analyzed with Genedata Screener.

[3] = read-out: SHP-2 biochemical assay IC50
[4] = SHP-2 biochemical assay IC50 (μM)

| IC50 ([1]; Homo sapiens, KYSE-520, 2 h) | IC50 [2, 3] | SMILES | IC50 [2, 4] | IC50 ([1]; 2 h) |
| --- | --- | --- | --- | --- |
| 5570 nM | – | Cc1nc(N2CCC(C)(N)CC2)cc(=O)n1-c1cccc(Cl)c1Cl [Compound 2, 6-(4-amino-4-methylpiperidin-1-yl)-3-(2,3-dichlorophenyl)-2-methyl-3,4-dihydropyrimidin-4-one] | – | – |
| 1300 nM | 0.078 µM | Cc1c(N2CCC3(CC2)CO[C@@H](C)[C@H]3N)nc(C)n(-c2cccc(Cl)c2Br)c1=O [Compound 97, 6-((3S,4S)-4-Amino-3-methyl-2-oxa-8-aza-spiro[4.5]dec-8-yl)-3-(2-bromo-3-chloro-phenyl)-2,5-dimethyl-3H-pyrimidin-4-one] | – | – |
| 7 nM | 0.002 µM | Cc1c(F)ccc(-n2c(C)nc(N3CCC4(CC3)Cc3ccccc3[C@H]4N)c(C)c2=O)c1Cl [Compound 110, 6-[(1S)-1-amino-1,3-dihydrospiro[indene-2,4′-piperidin]-1′-yl]-3-(2-chloro-4-fluoro-3-methylphenyl)-2,5-dimethyl-3,4-dihydropyrimidin-4-one] | – | – |
| 15 nM | 0.006 µM | Cc1c(N2CCC3(CC2)Cc2ccccc2[C@H]3N)nc(C)n(-c2ccc(F)c(F)c2Cl)c1=O [Compound 113, 6-[(1S)-1-amino-1,3-dihydrospiro[indene-2,4′-piperidin]-1′-yl)-3-(2-chloro-3,4-difluorophenyl)-2,5-dimethyl-3,4-dihydropyrimidin-4-one] | – | – |
| 5 nM | 0.0008 µM | Cc1nc(N2CCC3(CC2)Cc2ccccc2[C@H]3N)cc(=O)n1-c1cccc(Cl)c1Cl (single isomer, unassigned) [Compound 119b] | – | – |
| 2780 nM | 0.51 µM | Cc1nc(N2CCC(N)(CO)CC2)cc(=O)n1-c1cccc(Cl)c1Cl [Compound 29, 6-[4-amino-4-(hydroxymethyl)piperidin-1-yl]-3-(2,3-dichlorophenyl)-2-methyl-3,4-dihydropyrimidin-4-one] | – | – |
| 6630 nM | 0.56 µM | Cc1c(N2CCC3(CCC3N)CC2)nc(C)n(-c2cccc(Cl)c2Cl)c1=O (stereo not shown) [Compound 82, 6-1-amino-7-azaspiro[3.5]nonan-7-yl-3-(2,3-dichlorophenyl)-2,5-dimethyl-3,4-dihydropyrimidin-4-one] | – | – |
| 955 nM | 0.028 µM | Cc1c(N2CCC3(CC2)CO[C@@H](C)[C@H]3N)nc(C)n(-c2ccc(F)c(Cl)c2Cl)c1=O [Compound 99, 6-((3S,4S)-4-Amino-3-methyl-2-oxa-8-aza-spiro[4.5]dec-8-yl)-3-(2,3-dichloro-4-fluoro-phenyl)-2,5-dimethyl-3H-pyrimidin-4-one] | – | – |
| 2740 nM | 0.067 µM | Cc1c(F)ccc(-n2c(C)nc(N3CCC4(CC3)CO[C@@H](C)[C@H]4N)c(C)c2=O)c1Cl [Compound 103, 6-((3S,4S)-4-Amino-3-methyl-2-oxa-8-aza-spiro[4.5]dec-8-yl)-3-(2-chloro-4-fluoro-3-methyl-phenyl)-2,5-dimethyl-3H-pyrimidin-4-one] | – | – |
| 4 nM | 0.002 µM | Cc1c(N2CCC3(CC2)Cc2ccccc2[C@H]3N)nc(C)n(-c2ccc(F)c(Cl)c2Cl)c1=O [Compound 109, 6-((1S)-1-amino-1,3-dihydrospiro[indene-2,4′-piperidin]-1′-yl]-3-(2,3-dichloro-4-fluorophenyl)-2,5-dimethyl-3,4-dihydropyrimidin-4-one] | – | – |
| 4250 nM | – | Cc1nc(N2CCC(C)(N)CC2)cc(=O)n1-c1cccc(Cl)c1Cl (single isomer, unassigned) [Compound 2b, (3M)-6-(4-amino-4-methylpiperidin-1-yl)-3-(2,3-dichlorophenyl)-2-methyl-3,4-dihydropyrimidin-4-one] | – | – |
| – | – | [2H]C([2H])([2H])c1c(N2CCC3(CC2)CO[C@@H](C)[C@H]3N)nc(C)n(-c2cccc(Cl)c2Cl)c1=O [Compound 63, 6-[(3S,4S)-4-amino-3-methyl-2-oxa-8-azaspiro[4.5]decan-8-yl]-3-(2,3-dichlorophenyl)-5-(^2H3)methyl-2-methyl-3,4-dihydropyrimidin-4-one] | 0.039 µM | 467 nM |
| 600 nM | 0.56 µM | Cc1nc(N2CCC3(CCC3N)CC2)cc(=O)n1-c1cccc(Cl)c1Cl (stereo not shown) [Compound 35, 6-{1-amino-7-azaspiro[3.5]nonan-7-yl}-3-(2,3-dichlorophenyl)-2-methyl-3,4-dihydropyrimidin-4-one] | – | – |
| 604 nM | 0.027 µM | Cc1c(N2CCC3(CC2)CO[C@@H](C)[C@H]3N)nc(C)n(-c2cccc(Br)c2Cl)c1=O [Compound 95, 6-((3S,4S)-4-Amino-3-methyl-2-oxa-8-aza-spiro[4.5]dec-8-yl)-3-(3-bromo-2-chloro-phenyl)-2,5-dimethyl-3H-pyrimidin-4-one] | – | – |
| 14 nM | 0.004 µM | Cc1c(N2CCC3(CC2)Cc2ccccc2[C@H]3N)nc(C)n(-c2cccc(F)c2Cl)c1=O [Compound 112, 6-[(1S)-1-amino-1,3-dihydrospiro[indene-2,4′-piperidin]-1′-yl]-3-(2-chloro-3-fluorophenyl)-2,5-dimethyl-3,4-dihydropyrimidin-4-one] | – | – |
| 14500 nM | 0.76 µM | C[C@@H]1OCC2(CCN(c3cc(=O)n(-c4cccc(Cl)c4Cl)c(N)n3)CC2)[C@@H]1N [Compound 5, 2-amino-6-[(3S,4S)-4-amino-3-methyl-2-oxa-8-azaspiro[4.5]decan-8-yl]-3-(2,3-dichlorophenyl)-3,4-dihydropyrimidin-4-one] | – | – |
| 2290 nM | 0.38 µM | Cc1nc(N2CCC(N)(CCO)CC2)cc(=O)n1-c1cccc(Cl)c1Cl [Compound 26, 6-[4-amino-4-(2-hydroxyethyl)piperidin-1-yl]-3-(2,3-dichlorophenyl)-2-methyl-3,4-dihydropyrimidin-4-one] | – | – |
| – | – | [2H]C([2H])([2H])c1c(N2CCC3(CC2)CO[C@@H](C)[C@H]3N)nc(C)n(-c2cccc(Cl)c2Cl)c1=O (single isomer, unassigned) [Compound 63b] | 0.015 µM | 177 nM |
| – | – | Cc1c(N2CCC3(CC2)Cc2ccccc2[C@H]3N)nc(C)n(-c2cccc(Cl)c2Cl)c1=O (atropisomer, axis not shown) [Compound 74b, (3P)-6-[(1S)-1-amino-1,3-dihydrospiro[indene-2,4′-piperidin]-1′-yl]-3-(2,3-dichlorophenyl)-2,5-dimethyl-3,4-dihydropyrimidin-4-one] | 0.026 µM | 624 nM |
| – | – | Cc1c(N2CCC3(CC2)c2ncccc2C[C@H]3N)nc(C)n(-c2cccc(Cl)c2Cl)c1=O [Compound 75, (3M)-6-[(6R)-6-amino-5,6-dihydrospiro[cyclopenta[b]pyridine-7,4′-piperidin]-1′-yl]-3-(2,3-dichlorophenyl)-2,5-dimethyl-3,4-dihydropyrimidin-4-one] | – | 824 nM |
| – | 6.6 µM | Cc1nc(N2CC3CCCC3(CN)C2)cc(=O)n1-c1cccc(Cl)c1Cl (stereo not shown) [Compound 14, 6-[3a-(aminomethyl)-octahydrocyclopenta[c]pyrrol-2-yl]-3-(2,3-dichlorophenyl)-2-methyl-3,4-dihydropyrimidin-4-one] | – | – |
| – | > 10 µM | Cc1c(N2CCc3cccc(N)c3C2)nc(C)n(-c2cccc(Cl)c2Cl)c1=O [Compound 51, 6-(8-amino-1,2,3,4-tetrahydroisoquinolin-2-yl)-3-(2,3-dichlorophenyl)-2,5-dimethyl-3,4-dihydropyrimidin-4-one] | – | – |

| SMILES | IC50 ([1]; Homo sapiens, KYSE-520, 2 h) | IC50 [2, 3] | IC50 [2, 4] | IC50 ([1]; 2 h) |
| --- | --- | --- | --- | --- |
| Cc1nc(N2CCC3(CCC[C@H]3N)CC2)cc(=O)n1-c1cccc(Cl)c1Cl [Compound 27, 6-{(R)-1-amino-8-azaspiro[4.5]decan-8-yl}-3-(2,3-dichlorophenyl)-2-methyl-3,4-dihydropyrimidin-4-one] | 239 nM | 0.051 µM | – | – |
| Cc1c(N2CCC3(CC2)Oc2ncccc2[C@@H]3N)nc(C)n(-c2cccc(Cl)c2Cl)c1=O [Compound 79b, (3M)-6-[(3S)-3-amino-3H-spiro[furo[2,3-b]pyridine-2,4′-piperidin]-1′-yl]-3-(2,3-dichlorophenyl)-2,5-dimethylpyrimidin-4-one] | 102 nM | – | 0.006 µM | – |
| Cc1c(N2CCC3(CC2)Oc2cnccc2[C@H]3N)nc(C)n(-c2cccc(Cl)c2Cl)c1=O (single isomer, unassigned) [Compound 80a] | > 10000 nM | – | 1.4 µM | – |
| Cc1c(N2CCC3(CCC[C@H]3N)CC2)nc(N)n(-c2cccc(Cl)c2Cl)c1=O (single isomer, unassigned) [Compound 78d] | 1330 nM | – | 0.19 µM | – |
| Cc1nc(N2CCC3(CCC[C@H]3N)CC2)cc(=O)n1-c1cccc(Cl)c1Cl (single isomer, unassigned) [Compound 62b] | 526 nM | – | 0.081 µM | – |
| Cc1c(N2CCC3(CC2)C[C@H](C)C[C@H]3N)nc(C)n(-c2cccc(Cl)c2Cl)c1=O (atropisomer, axis not shown) [Compound 111a, (3M)-6-[(1R,3S)-1-amino-3-methyl-8-azaspiro[4.5]decan-8-yl]-3-(2,3-dichlorophenyl)-2,5-dimethyl-3,4-dihydropyrimidin-4-one] | 720 nM | 0.093 µM | – | – |
| Cc1c(N2CCC3(CCC[C@H]3N)CC2)nc(C)n(-c2cccc(Cl)c2Cl)c1=O [Compound 67b, (3M)-6-[(1R)-1-amino-8-azaspiro[4.5]decan-8-yl]-3-(2,3-dichlorophenyl)-2,5-dimethyl-3,4-dihydropyrimidin-4-one] | – | 0.041 µM | – | 198 nM |
| Cc1c(N2CCC3(CC2)Cc2ccccc2[C@H]3N)nc(C)n(-c2cccc(C#N)c2Cl)c1=O [Compound 108, 3-4-[(1S)-1-amino-1,3-dihydrospiro[indene-2,4′-piperidin]-1′-yl]-2,5-dimethyl-6-oxo-1,6-dihydropyrimidin-1-yl-2-chlorobenzonitrile] | 32 nM | – | 0.007 µM | – |
